The values that follow come from patent publication US7438931B2, “Methods and compositions for the treatment of angiogenic diseases” (The Regents of The University of Michigan, priority 1998, dated 2008).

The test system of series [1] is MML cells (prostate cancer) and breast cancer cells. Nature of the series: Cytotoxicity assay of MML cells and breast cancer cells. The format is cell-based. An excerpt:
Normal and neoplastic cells in culture derive their nutrients from transport and utilization of molecules from the media to the interior of the cell. This process is not dependent on blood vessel growth, and therefore TM should have no effect on cell growth rates and cell viability over a wide range of concentration, until a level of TM which is toxic to most cells is reached. One mechanism of toxicity is the depletion of free copper levels below those required for basic cell function. For concentrations of TM beyond this toxic level, both normal and neoplastic cells will be unable to survive, due to cellular toxicity of TM.
This was confirmed in a cytotoxicity assay of MML cells (prostate cancer) and breast cancer cells. […] The fraction of viable cells decreased precipitously from 100% to 15% when the concentration of TM increased from 1 μg/ml to 10 μg/ml. TM is therefore not contemplated for use a direct cytotoxic agent, as it is clear that, at the very high doses required for a cytotoxic effect, both tumor and normal cell death would occur. The serum TM concentrations needed to achieve an effective decoppering level are 100-500-fold lower than the threshold lethal level for cells.

Another series can be described thus: Phase I trial: toxicity. The format is in vivo, human. An excerpt:
Six patients were to be enrolled at each dose level. After 4 patients were enrolled at level I, if one patient experienced dose-limiting toxicity (DLT) (defined as Hct<80% of baseline), 2 more patients were enrolled at level I. If no DLT was observed, patients were enrolled at the next dose level. Treatment was allowed to continue beyond induction of target copper deficiency, if the patients experienced a partial or complete clinical response or achieved clinical stable disease by the following definitions. Complete response is defined as the disappearance of all clinical and laboratory signs and symptoms of active disease. Partial response is defined as a 50% or greater reduction in the size of measurable lesions defined by the sum of the products of the longest perpendicular diameters of the lesions, with no new lesions or lesions increasing in size. Minor response is defined as a 25-49% reduction in the sum of the products of the longest perpendicular diameters of one or more measurable lesions, no increase in size of any lesions and no new lesions; stable disease is any change in tumor measurements not represented by the criteria for response or progressive disease, which is defined as an increase of 25% or more in the sum of the products of the longest perpendicular diameters of any measurable indicator lesions, compared to the smallest previous measurement or appearance of a new lesion. Because copper deficiency is not a cytotoxic treatment modality, the patients who provide information about the efficacy of TM for long-term therapy, in this population of patients with advanced cancer, are primarily those who remained within the target Cp window of (20±10)% of baseline for over 90 days, without disease progression
Complete blood counts, liver and renal function tests, urinalyses, and Cp level (by the oxidase method) were performed weekly for 16 weeks, then bi-weekly. Physical examinations and evaluations of toxicity were carried out every 2 weeks for 8 weeks, then every 4 weeks for the duration of therapy. Toxicity was evaluated using the National Cancer Institute Common Toxicity Criteria (Table 3). […] Nevertheless, therapy will be discontinued and the patient removed from the study if grade 3 or higher toxicities of any type are observed, whatever the probable etiology. For grade 2 toxicities, an attempt will be made to establish their etiology.

The conditions of series [2]: in vivo, iv; cited from earlier work.
For series [3] the following is noted: approximately 6 mg of TM per kilogram of diet; cited from earlier work.
The nature of series [4]: Stability of sucrose-TM complex vs pure TM in open air (OD467). The format is physicochemical. To be noted: after 3 months of storage in an open dish. On the procedure:
An example of such a stabilized thiomolybdate compound is tetrathiomolybdate stabilized by sucrose. To prepare the sucrose-ammonium tetrathiomolybdate complex, 25 grams of sucrose is dissolved in 20 ml of distilled water. 1 gram of ammonium tetrathiomolybdate (TM) is added and the mixture stirred under argon until the TM is solution. The water is then removed from the mixture by flash evaporation under high vacuum.
After 3 months of storage in an open dish, the sucrose powder retained 61% of the original drug as measured by the OD467, while the TM stored under the same conditions retained only 5% of its original OD467.

For the next series, the system named is Cp level. As to the kind of experiment: TM loading dosing schedule and Cp reduction. The format is in vivo, human. To be noted: 20 mg tid with meals and a single dose of 60 mg between meals, vs 20 mg tid with meals and 20 mg tid between meals. On the procedure: Therefore, this dosing schedule will be studied in a Phase II study. Three other loading doses of TM will also be studied: Level 1: 20 mg tid between meals and 20 mg tid with meals until Cp<20% (10 patients); Level 2: 25 mg tid between meals and 25 mg tid with meals until Cp<20% (10 patients); and Level 3: 30 mg tid between meals and 30 mg tid with meals until Cp<20% (10 patients).

In series [5] the test system is copper toxicity. To be noted: cited from earlier work.
Series [6] deals with copper toxicity. To be noted: late stages of liver disease; cited from earlier work.
A short description of series [7]: Storage stability of TM (bulk under argon, capsules). The format is physicochemical. To be noted: room temperature. The text has this:
The bulk drug is therefore stored under argon.
TM was purchased in bulk lots suitable for human administration (Aldrich Chemical Company, Milwaukee, Wis.). […] At the time a prescription was written, the appropriate dose of TM was placed in gelatin capsules. Previously, it was shown by the inventors that TM dispensed in such capsules retained at least 90% of its potency for eight weeks (Brewer et al., 1991a). Thus, TM was dispensed to each patient in eight-week installments throughout the trial.

For tetrathiomolybdate [TM], the “serum TM concentrations for effective decoppering relative to threshold lethal level for cells” value in series [1] was 100-500 fold lower. Also, in “Phase I trial: toxicity” (Cp levels at or above 20% of baseline), the toxicities entry is on record as “no cardiac, pulmonary, GI, renal, hepatic, hematologic, infectious, skin, mucosal, or neurologic toxicities observed”. Besides, the “patients with mild (greater than 80% of baseline Hct) reversible anemia” value in “Phase I trial: toxicity” (Cp levels between 10-20% of baseline) is given as 4 patients. In addition, in the series “Phase I trial: toxicity” (Cp lowered to 10-20% of baseline for up to 17 months of treatment), the toxicity result was “remarkably non-toxic”. In “Phase I trial: toxicity” (Cp reduced to 15-20% of baseline), the toxicity result was “non-toxic”. The “only drug-related toxicity observed” value in the series “Phase I trial: toxicity” (in vivo) was “mild anemia in one patient”. The “toxicities on long-term maintenance” value in the series “Phase I trial: toxicity” (mild clinical copper deficiency over 8-15 months) is given as “No additional toxicities of any type were observed”. For the same substance, the “time for hematocrit to recover after stopping the drug” value in the series “Phase I trial: toxicity” (one patient, without transfusion) lay within 5 to 7 days. Besides, in “Phase I trial: toxicity” (several patients, within 30 minutes of TM ingestion), the other adverse effect entry is reported as “transient, occasional sulphur-smelling burping”. In addition, in series [2], the excreted in feces was 5%, the excreted in urine entry is “over 90%” and the “t1/2 of slow plasma disappearance” value is “about 40 h”. The effects on copper result in [3] was “reduction of plasma ceruloplasmin and a reduction in liver and kidney copper”. The water solubility entry in the series “Water solubility” was “moderately water soluble”. Also, the “retained % of the original drug as measured by the OD467” value in series [4] is 5%. Besides, the “speed of Cp reduction” value with Cp level is listed as “reduces the Cp level to <20% more rapidly”. Also, the “tolerability of IV TM injections” value in the series with copper toxicity [5] (copper loaded sheep, 50 or 100 mg 2× weekly for up to 11 weeks) is given as “tolerated up to 22 injections of TM without clinical problems”. In the series with copper toxicity [5] (over 400 animals of commercial sheep flocks, prophylactic use), the adverse side effects entry was “no adverse side effects”. In the series with copper toxicity [6], the “efficacy against copper toxicity” value is reported as “very effective in treating these animals in the late stages of their liver disease”. Also, the stability in capsules entry in series [7] was “stable in capsules for several months at room temperature”.
